Read-outs that look alike come from different tables or passages of the source.
Assays:
human DGKα = biological target: T1, human DGKα (Homo sapiens, UniProt P23743); assay: DGKα LIPGLO assay (extruded liposome substrate), in vitro DGK inhibition; assay type: biochemical; details: liposome (LIPGLO) assay; read-out: DGKa LIPGLO IC50
T1 construct: TVMV protease cleavage site (C); Hexa-His (C); made in house; host or cells: Sf9 insect cells (baculovirus, Bac-to-Bac)

human DGKζ = biological target: T2, human DGKζ (Homo sapiens, UniProt Q13574); assay: DGKζ LIPGLO assay (extruded liposome substrate), in vitro DGK inhibition; assay type: biochemical; details: liposome (LIPGLO) assay; read-out: DGKz LIPGLO IC50
T2 construct: TVMV protease cleavage site (C); Hexa-His (C); made in house; host or cells: Sf9 insect cells (baculovirus, Bac-to-Bac)

[1] = system: OT-1 CD8+ T cells with SIINFEKL-loaded MC38 tumor cells; assay: Murine cytotoxic T lymphocyte assay (IFN-γ, OT-1 CTL with MC38 tumor cells); assay type: cell-based, mouse; details: read-out: msCTL INFg IC50
Description: 5. Murine Cytotoxic T Lymphocyte Assay
An antigen-specific cytolytic T-cell (CTL) assay was developed to evaluate functionally the ability of DGKα and DGKζ inhibitors to enhance effector T cell mediated tumor cell killing activity. CD8+ T-cells isolated from the OT-1 transgenic mouse recognize antigen presenting cells, MC38, that present the ovalbumin derived peptide […]. Recognition of the cognate antigen initiates the cytolytic activity of the OT-1 antigen-specific CD8+ T cells.
Functional CTL cells were generated as follows: OT-1 splenocytes from 8-12 week old mice were isolated and expanded in the presence of the […] peptide at 1 μg/mL and mIL2 at 10 U/mL. After three days, fresh media with […] was added. On day 5 of the expansion, the CD8+ T cells were isolated and ready for use. Activated CTL cells may be stored frozen for 6 months. Separately, one million MC38 tumor cells were pulsed with 1 μg/mL of […]-OVA peptide for 3 hours at 37° C. The cells were washed (3×) with fresh media to remove excess peptide. Finally, CTL cells that were pretreated with DGK inhibitors for 1 hour in a 96-well U bottom plate were combined with the antigen loaded MC38 tumor cells at a 1:10 ratio. The cells were then spun at 700 rpm for 5 min and placed in an incubator overnight at 37° C. After 24 hours, the supernatant was collected for analysis of IFN-γ cytokine levels by AlphaLisa purchased from Perkin Elmer.

naïve human CD8 T cells = assay: Human CD8 T cells IFN-γ assay; assay type: cell-based; details: normalized to 3 μM reference compound with anti-CD3 plus anti-CD28 as 100% activation, read-out: HuCD8 INFG Normalized EC50;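 note: Naïve human CD8 T cells stimulated with plate-bound anti-CD3 and soluble anti-CD28, IFN-γ in supernatant quantified by AlphaLISA and converted to pg/mL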
Human venous whole blood = assay: Human whole blood IFN-γ assay; assay type: cell-based; details: normalized to 3 μM reference compound with anti-CD3 plus anti-CD28 as 100% activation;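 note: blood from healthy donors exposed to compound for 1 h before stimulation with anti-CD3 and anti-CD28 at 1 µg/mL each, IFN-γ quantified in supernatant by AlphaLISA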
[2] = human whole blood, read-out: INFg Whole Blood Normalized Agonist EC50
[3] = Homo sapiens, 24 h, read-out: INFg Whole Blood Normalized Agonist EC50, human whole blood

T1 sequence (P23743 with tags, fused parts or gaps): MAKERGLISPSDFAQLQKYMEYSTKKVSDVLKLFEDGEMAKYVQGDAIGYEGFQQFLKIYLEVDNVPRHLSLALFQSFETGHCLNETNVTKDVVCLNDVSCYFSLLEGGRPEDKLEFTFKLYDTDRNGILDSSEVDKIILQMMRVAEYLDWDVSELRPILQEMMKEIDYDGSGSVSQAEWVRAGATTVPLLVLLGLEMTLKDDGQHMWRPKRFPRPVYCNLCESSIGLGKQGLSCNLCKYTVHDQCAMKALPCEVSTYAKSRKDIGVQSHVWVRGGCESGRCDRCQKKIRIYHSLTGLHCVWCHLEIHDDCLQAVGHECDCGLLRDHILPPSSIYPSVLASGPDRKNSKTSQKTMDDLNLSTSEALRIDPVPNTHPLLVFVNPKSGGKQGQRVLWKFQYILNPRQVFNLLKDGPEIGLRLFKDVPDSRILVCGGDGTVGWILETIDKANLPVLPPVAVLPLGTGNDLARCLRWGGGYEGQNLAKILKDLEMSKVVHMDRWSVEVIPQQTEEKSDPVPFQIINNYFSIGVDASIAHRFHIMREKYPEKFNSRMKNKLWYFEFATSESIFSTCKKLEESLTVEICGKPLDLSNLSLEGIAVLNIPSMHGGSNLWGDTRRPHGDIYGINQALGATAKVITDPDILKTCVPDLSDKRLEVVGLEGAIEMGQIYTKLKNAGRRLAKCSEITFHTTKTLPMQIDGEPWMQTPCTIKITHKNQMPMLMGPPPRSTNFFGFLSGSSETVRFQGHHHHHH
T2 sequence (Q13574 with tags, fused parts or gaps isoform Q13574-4): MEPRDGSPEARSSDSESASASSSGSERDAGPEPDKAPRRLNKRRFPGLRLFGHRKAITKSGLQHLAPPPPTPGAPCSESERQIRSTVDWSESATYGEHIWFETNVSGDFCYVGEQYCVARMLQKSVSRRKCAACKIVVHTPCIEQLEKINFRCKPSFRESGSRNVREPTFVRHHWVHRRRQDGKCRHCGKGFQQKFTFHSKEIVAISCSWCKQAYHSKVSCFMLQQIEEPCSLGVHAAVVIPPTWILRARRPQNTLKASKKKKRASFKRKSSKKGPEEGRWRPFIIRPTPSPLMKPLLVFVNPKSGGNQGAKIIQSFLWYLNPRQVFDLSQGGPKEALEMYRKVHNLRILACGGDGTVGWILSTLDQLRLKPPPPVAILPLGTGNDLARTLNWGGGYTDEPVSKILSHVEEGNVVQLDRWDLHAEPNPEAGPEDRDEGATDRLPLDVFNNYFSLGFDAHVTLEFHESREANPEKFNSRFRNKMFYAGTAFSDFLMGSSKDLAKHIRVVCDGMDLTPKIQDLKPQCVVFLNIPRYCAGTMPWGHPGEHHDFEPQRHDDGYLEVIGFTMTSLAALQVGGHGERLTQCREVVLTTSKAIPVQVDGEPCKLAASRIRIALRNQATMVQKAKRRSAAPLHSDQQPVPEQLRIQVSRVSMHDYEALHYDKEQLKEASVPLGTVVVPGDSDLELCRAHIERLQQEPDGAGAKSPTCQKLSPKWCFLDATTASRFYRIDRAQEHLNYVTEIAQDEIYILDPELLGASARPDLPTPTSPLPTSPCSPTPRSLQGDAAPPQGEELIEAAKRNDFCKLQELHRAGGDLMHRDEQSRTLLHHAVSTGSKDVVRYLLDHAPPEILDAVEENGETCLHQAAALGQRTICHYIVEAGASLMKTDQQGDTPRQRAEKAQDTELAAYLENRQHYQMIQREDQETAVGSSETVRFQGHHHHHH

IC50 (human DGKα) [nM] | IC50 (human DGKζ) [nM] | Compound | IC50 [1] [nM] | EC50 (naïve human CD8 T cells) [nM] | EC50 (Human venous whole blood; [2]) [nM] | IC50 ([1]; Mus musculus, MC-38) [nM] | EC50 (naïve human CD8 T cells; Homo sapiens, T-cell, 20 h) [nM] | EC50 (Human venous whole blood; Homo sapiens, 24 h, human whole blood, read-out: INFg Whole Blood Normalized Agonist EC50) [nM] | EC50 (Human venous whole blood; Homo sapiens, human whole blood, read-out: INFg Whole Blood Normalized Agonist EC50) [nM] | EC50 (Human venous whole blood; [3]) [nM] | EC50 (Human venous whole blood; read-out: INFg Whole Blood Normalized Agonist EC50, human whole blood) [nM]
240000 | 9400 | COC(=O)C1CN(c2cc(=O)n(C)c3ccc(C#N)nc23)CCN1C(c1ccc(F)cc1)c1ccc(F)cc1 (single isomer, unassigned) [Example 39, Methyl 1-(bis(4-fluorophenyl)methyl)-4-(6-cyano-1-methyl-2-oxo-1,2-dihydro-1,5-naphthyridin-4-yl)piperazine-2-carboxylate] | 1900 | 220 | 9700 |  |  |  |  |  | 
1200 | 630 | COC(=O)C1CN(c2cc(=O)n(C)c3ccc(C#N)nc23)CCN1C(c1ccc(F)cc1)c1ccc(F)cc1 (single isomer, unassigned) [Example 40, Methyl 1-(bis(4-fluorophenyl)methyl)-4-(6-cyano-1-methyl-2-oxo-1,2-dihydro-1,5-naphthyridin-4-yl)piperazine-2-carboxylate] | 71 | 28 | 780 |  |  |  |  |  | 
25000 | 39000 | COC(=O)C1CN(C(c2ccc(F)cc2)c2ccc(F)cc2)CCN1c1cc(=O)n(C)c2ccc(C#N)nc12 (single isomer, unassigned) [Example 136, Methyl 4-(bis(4-fluorophenyl)methyl)-1-(6-cyano-1-methyl-2-oxo-1,2-dihydro-1,5-naphthyridin-4-yl)piperazine-2-carboxylate] | 520 |  |  |  | 950 |  |  |  | 
240000 | 110000 | Cn1c(=O)cc(N2CCN(C(c3ccc(F)cc3)c3ccc(F)cc3)CC2C(=O)NC2CC2)c2nc(C#N)ccc21 (single isomer, unassigned) [Example 139, 4-(bis(4-fluorophenyl)methyl)-1-(6-cyano-1-methyl-2-oxo-1,2-dihydro-1,5-naphthyridin-4-yl)-N-cyclopropylpiperazine-2-carboxamide] |  | 50000 |  | 10000 |  |  |  |  | 
2400 | 1200 | COC(=O)[C@@H]1CN(c2cc(=O)n(C)c3ccc(C#N)nc23)CCN1C(c1ccc(F)cc1)c1ccc(F)cc1 [Example 66, Methyl (S)-1-(bis(4-fluorophenyl)methyl)-4-(6-cyano-1-methyl-2-oxo-1,2-dihydro-1,5-naphthyridin-4-yl)piperazine-2-carboxylate] |  |  |  | 66 | 160 |  |  |  | 
13000 | 4900 | C[C@H]1CN(C(c2ccc(F)cc2)c2ccc(F)cc2)CCN1c1cc(=O)n(C)c2ccc(C#N)nc12 [Example 134, (S)-8-(4-(bis(4-fluorophenyl)methyl)-2-methylpiperazin-1-yl)-5-methyl-6-oxo-5,6-dihydro-1,5-naphthyridine-2-carbonitrile] |  |  |  | 390 | 590 |  |  |  | 

More lines, now with the values behind:

Compound | IC50 (human DGKα) [nM] | IC50 (human DGKζ) [nM] | IC50 [1] [nM] | EC50 (naïve human CD8 T cells) [nM] | EC50 (Human venous whole blood; [2]) [nM] | IC50 ([1]; Mus musculus, MC-38) [nM] | EC50 (naïve human CD8 T cells; Homo sapiens, T-cell, 20 h) [nM] | EC50 (Human venous whole blood; Homo sapiens, 24 h, human whole blood, read-out: INFg Whole Blood Normalized Agonist EC50) [nM] | EC50 (Human venous whole blood; Homo sapiens, human whole blood, read-out: INFg Whole Blood Normalized Agonist EC50) [nM] | EC50 (Human venous whole blood; [3]) [nM] | EC50 (Human venous whole blood; read-out: INFg Whole Blood Normalized Agonist EC50, human whole blood) [nM]
Cn1c(=O)cc(N2CCN(C(c3ccc(F)cc3)c3ccc(F)cc3)C(CO)C2)c2nc(C#N)ccc21 (single isomer, unassigned) [Example 1, 8-(4-(bis(4-fluorophenyl)methyl)-3-(hydroxymethyl)piperazin-1-yl)-5-methyl-6-oxo-5,6-dihydro-1,5-naphthyridine-2-carbonitrile] | 3000 | 480 | 230 | 96 | 820 |  |  |  |  |  | 
Cn1c(=O)cc(N2CCN(C(c3ccc(F)cc3)c3ccc(F)cc3)C(CO)C2)c2nc(C#N)ccc21 (single isomer, unassigned) [Example 2, 8-(4-(bis(4-fluorophenyl)methyl)-3-(hydroxymethyl)piperazin-1-yl)-5-methyl-6-oxo-5,6-dihydro-1,5-naphthyridine-2-carbonitrile] | 2600 | 3300 |  |  | 2700 | 210 | 120 |  |  |  | 
COC(=O)C1CN(c2c(C#N)c(=O)n(C)c3ccc(C#N)nc23)CCN1C(c1ccc(F)cc1)c1ccc(F)cc1 (single isomer, unassigned) [Example 51, methyl 1-(bis(4-fluorophenyl)methyl)-4-(3,6-dicyano-1-methyl-2-oxo-1,2-dihydro-1,5-naphthyridin-4-yl)piperazine-2-carboxylate] |  | 2100 | 1900 | 510 | 1600 |  |  |  |  |  | 
CC(C)OC(=O)C1CN(c2c(C#N)c(=O)n(C)c3ccc(C#N)nc23)CCN1C(c1ccc(F)cc1)c1ccc(F)cc1 (single isomer, unassigned) [Example 64, Isopropyl 1-(bis(4-fluorophenyl)methyl)-4-(3,6-dicyano-1-methyl-2-oxo-1,2-dihydro-1,5-naphthyridin-4-yl)piperazine-2-carboxylate] | 240000 | 240000 |  | 10000 |  | 8800 |  |  |  |  | 
CC(C)OC(=O)C1CN(c2c(C#N)c(=O)n(C)c3ccc(C#N)nc23)CCN1C(c1ccc(F)cc1)c1ccc(F)cc1 (single isomer, unassigned) [Example 65, Isopropyl 1-(bis(4-fluorophenyl)methyl)-4-(3,6-dicyano-1-methyl-2-oxo-1,2-dihydro-1,5-naphthyridin-4-yl)piperazine-2-carboxylate] | 240000 |  | 8400 | 1700 |  |  |  | 16000 |  |  | 
C[C@@H]1CN(c2cc(=O)n(C)c3ccc(C#N)nc23)[C@@H](C)CN1C(c1ccccc1)c1ccc(F)cc1 (single isomer, unassigned) [Example 183] |  |  |  |  |  | 33 | 39 |  | 700 |  | 
C[C@@H]1CN(c2cc(=O)n(C)c3ccc(C#N)nc23)[C@@H](C)CN1C(c1ccc(F)cc1)c1ccccc1F (single isomer, unassigned) [Example 304] |  |  | 47 | 8.5 |  |  |  |  |  | 490 | 
C[C@@H]1CN(c2cc(=O)n(C)c3ccc(C#N)nc23)[C@@H](C)CN1C(c1ccc(F)cc1)c1ccccc1F (single isomer, unassigned) [Example 305] |  |  | 23 | 26 |  |  |  |  |  |  | 680
C[C@@H]1CN(C(c2ccc(F)cc2)c2ccc(F)cc2)[C@@H](C)CN1c1cc(=O)n(C)c2ccc(C#N)nc12 [Example 4, 8-((2R,5S)-4-(bis(4-fluorophenyl)methyl)-2,5-dimethylpiperazin-1-yl)-5-methyl-6-oxo-5,6-dihydro-1,5-naphthyridine-2-carbonitrile] |  |  |  |  |  | 320 | 300 |  |  | 3500 | 
C[C@@H]1CN(c2c(Cl)c(=O)n(C)c3ccc(C#N)nc23)CCN1C(c1ccc(F)cc1)c1ccc(F)cc1 [Example 29, (R)-8-(4-(bis(4-fluorophenyl)methyl)-3-methylpiperazin-1-yl)-7-chloro-5-methyl-6-oxo-5,6-dihydro-1,5-naphthyridine-2-carbonitrile] |  |  |  |  |  | 37 | 18 |  |  | 1300 | 
C[C@H]1CN(C(c2ccc(F)cc2)c2ccc(F)cc2)[C@@H](C)CN1c1cc(=O)n(C)c2ccc(C#N)nc12 [Example 133, 8-((2S,5S)-4-(bis(4-fluorophenyl)methyl)-2,5-dimethylpiperazin-1-yl)-5-methyl-6-oxo-5,6-dihydro-1,5-naphthyridine-2-carbonitrile] |  |  |  |  |  | 1100 | 840 |  |  | 5800 | 
CC1CN(c2cc(=O)n(C)c3ccc(C#N)nc23)CC(C)N1C(c1ccc(F)cc1)c1ccc(F)cc1 (stereo not shown) [Example 163, 8-(4-(bis(4-fluorophenyl)methyl)-3,5-dimethylpiperazin-1-yl)-5-methyl-6-oxo-5,6-dihydro-1,5-naphthyridine-2-carbonitrile] | 16000 | 12000 |  |  |  | 2100 | 1500 |  |  |  | 
